# Experimental data published in publication PMC8746645, “Isolation of Anti-Diabetic Active Compounds from Benincasae Exocarpium and Development of Simultaneous Analysis by HPLC-PDA” (Molecules, 2021).
# Where two headings read alike, the source gives them in different places.
# Columns and labels:
# [1] = test system: advanced glycation end-products (AGEs) formation in bovine serum albumin (BSA)-glucose system; type: biochemical
# Method: The AGE formation inhibitory assay of BSA-glucose was conducted using a spectrophotometric method developed in a previous study. All test samples were dissolved in 10% DMSO at five different concentrations (1000–10,000 μg/mL for the extract and fractions and 100–10,000 μM for the compounds). The assay mixtures contained the following constituents: 135 µL of 50 mM phosphate buffer (pH 7.4) containing 0.02% sodium azide and BSA (10 mg/mL), 135 µL of 0.4 M D-fructose and D-glucose, and 30 µL of sample. The mixture was incubated at 60 °C for 2 days. After incubation, the fluorescence was measured at an excitation wavelength of 350 nm and emission wavelength of 450 nm in a 96-black well plate. AMG was used as a positive control. The inhibitory activity on AGE formation of BSA-glucose was calculated using the following formula: {(Ac − As)/Ac} × 100, where Ac is the fluorescence of the control and As is the fluorescence of the sample. Controls contained the same reaction mixture, except that phosphate buffer was added instead of the sample. The half-maximal inhibitory concentration (IC50) values of triplicate measurements of the samples and AMG were calculated and expressed as the mean ± SD.
# [2] = test system: advanced glycation end-products (AGEs) formation in BSA-methylglyoxal (MGO) system; assay: AGE formation inhibitory assay, BSA-MGO system; type: biochemical, bovine
# Method: The AGE formation inhibitory assay of BSA-MGO was conducted using spectrophotometry according to a previously described method with modification. All samples were dissolved in 10% DMSO. The assay mixtures contained 50 µL of 50 mM phosphate buffer (pH 7.4) containing 0.02% sodium azide and BSA (10 mg/mL), 50 µL of 7 mM MGO, and 50 µL of sample. After incubation at 60 °C for 2 days, fluorescence was measured on excitation and emission wavelengths of 340 and 420 nm, respectively, in a 96-black well plate. AMG was used as a positive control. The inhibitory activity on AGE formation by BSA-MGO was calculated using the same equation applied in the BSA-glucose assay.
# [3] = set-up: method as in PMID 29885110; settings: cited from earlier work
# [4] = molecular target: α-glucosidase from Saccharomyces cerevisiae (Saccharomyces cerevisiae, UniProt P53341); assay: α-glucosidase inhibitory activity assay (p-NPG substrate); type: biochemical; settings: for IC50: compounds, pH 6.8, 37 °C, 405 nm, mean ± SD (n = 3)
# Method: Among the anti-diabetes activity assays, the Infinite® F200 PRO spectrophotometer (TECAN, Männedorf, Zürich, Switzerland) was used for the AGE formation inhibitory activity assay in the BSA-glucose and BSA-MGO systems. In addition, the α-glucosidase inhibitory activity assay was performed using Biotek EPOCH2 (Biotek, Winooski, VT, USA).
# α-Glucosidase inhibitory activity was measured spectrophotometrically according to the previously described method. All samples were dissolved in 10% DMSO. This assay consisted of a 50 μL sample solution, 50 μL of 50 mM potassium phosphate buffer (pH 6.8), and 50 μL of 0.5 U/mL α-glucosidase was preincubated for 10 min at 37 °C. After incubation, 50 μL of p-NPG was added to the mixed assay mixtures. […] The inhibitory activity was calculated using the equation applied in the BSA-glucose assay, but Ac and As are the absorbance values of the control and sample, respectively.
# [5] = compounds, 60 °C, 2 days, fluorescence ex 350/em 450 nm, mean ± SD (n = 3), read-out: IC50 BSA-Glucose
# [6] = compounds, 60 °C, 2 days, fluorescence ex 340/em 420 nm, mean ± SD (n = 3)
# Sequence of α-glucosidase from Saccharomyces cerevisiae (P53341 whole entry): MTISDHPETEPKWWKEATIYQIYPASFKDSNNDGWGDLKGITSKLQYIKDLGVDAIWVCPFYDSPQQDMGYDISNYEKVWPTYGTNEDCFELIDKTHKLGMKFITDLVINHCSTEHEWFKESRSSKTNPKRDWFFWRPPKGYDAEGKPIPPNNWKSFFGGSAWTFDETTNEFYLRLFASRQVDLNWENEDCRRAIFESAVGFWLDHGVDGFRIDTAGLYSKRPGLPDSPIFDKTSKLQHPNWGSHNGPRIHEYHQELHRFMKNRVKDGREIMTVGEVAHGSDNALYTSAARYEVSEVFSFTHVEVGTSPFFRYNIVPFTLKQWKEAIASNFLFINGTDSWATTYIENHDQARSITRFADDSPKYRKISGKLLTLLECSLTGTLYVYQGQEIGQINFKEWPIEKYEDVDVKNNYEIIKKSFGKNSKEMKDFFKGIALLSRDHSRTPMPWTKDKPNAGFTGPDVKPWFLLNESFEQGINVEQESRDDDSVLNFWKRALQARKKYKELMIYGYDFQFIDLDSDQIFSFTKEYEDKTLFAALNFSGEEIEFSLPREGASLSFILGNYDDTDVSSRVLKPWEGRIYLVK
SMILES,inhibition of AGE formation in BSA-MGO system (in words) [2],α-glucosidase inhibitory activity (in words) [4],"IC50 [1, 5] [µM]","IC50 [2, 6] [µM]",also measured
"Cl.N=C(N)NN [AMG, aminoguanidine hydrochloride, reference compound]",–,–,–,–,"IC50 BSA-Glucose ([1]; extract and fractions, 60 °C, 2 days, fluorescence ex 350/em 450 nm, mean ± SD (n = 3)): 217.93 ± 1.54 µg/mL; IC50 BSA-MGO ([2]; extract and fractions, 60 °C, 2 days, fluorescence ex 340/em 420 nm, mean ± SD (n = 3)): 167.32 ± 8.40 µg/mL"
"N=C(N)NN [Aminoguanidine, aminoguanidine]",–,–,–,–,toxicity during clinical evaluation [3]: toxic
"O=C(O)c1ccc(O)cc1 [Compound 1, p-hydroxybenzoic acid]",no or slight inhibitory activity,"no, or slight, inhibitory activity",–,–,inhibition of AGE formation in BSA-glucose system (in words) [1]: no activity
"O=C(O)c1ccc(O)c(O)c1 [Compound 2, protocatechuic acid]",–,–,79.8 ± 1.91,53.2 ± 23.2,–
"COc1ccc(C=O)cc1O [Compound 3, isovanillin]",no or slight inhibitory activity,"no, or slight, inhibitory activity",–,> 500,inhibition of AGE formation in BSA-glucose system (in words) [1]: no activity
"O=Cc1ccc(CO)o1 [Compound 4, 5-hydroxymethylfurfural]",no or slight inhibitory activity,"no, or slight, inhibitory activity",–,381 ± 14.7,inhibition of AGE formation in BSA-glucose system (in words) [1]: no activity
"O=c1cc(-c2ccc(O)cc2)oc2cc(O)c([C@@H]3O[C@H](CO)[C@@H](O)[C@H](O)[C@H]3O)c(O)c12 [Compound 5, isovitexin]",–,–,20.2 ± 0.1,7.49 ± 0.24,–
"O=c1cc(-c2ccc(O)cc2)oc2c([C@@H]3O[C@H](CO)[C@@H](O)[C@H](O)[C@H]3O)c(O)cc(O)c12 [Compound 6, vitexin]",–,–,19.5 ± 1.47,14.9 ± 3.66,–
"O=c1cc(-c2ccc(O)c(O)c2)oc2c([C@@H]3O[C@H](CO)[C@@H](O)[C@H](O)[C@H]3O)c(O)cc(O)c12 [Compound 7, orientin]",–,–,9.61 ± 0.27,13.3 ± 0.65,–
"O=C(O)c1cc(O)c(O)c(O)c1 [Compound 8, gallic acid]",no or slight inhibitory activity,–,192 ± 2.15,> 500,–
"O=C(O)/C=C/c1ccc(O)c(O)c1 [Compound 9, caffeic acid]",–,"no, or slight, inhibitory activity",54.51 ± 0.3,43 ± 9.41,–
"C[C@@H]1O[C@@H](O[C@@H]2[C@@H](O)[C@H](O)[C@@H](CO)O[C@H]2c2c(O)cc(O)c3c(=O)cc(-c4ccc(O)cc4)oc23)[C@H](O)[C@H](O)[C@H]1O [Compound 10, vitexin-2″-O-rhamnoside]",–,–,–,–,IC50 [1]: 29.6 ± 1.02 µM; IC50 [2]: 12.5 ± 0.81 µM; IC50 [4]: 12.8 ± 1.18 µM
"O=c1cc(-c2ccc(O)cc2)oc2c([C@@H]3O[C@H](CO)[C@@H](O[C@@H]4O[C@H](CO)[C@@H](O)[C@H](O)[C@H]4O)[C@H](O)[C@H]3O)c(O)cc(O)c12 [Compound 11, vitexin-4″-O-glucoside]",–,–,14.5 ± 0.39,11.6 ± 1.1,IC50 [4]: 65.4 ± 4.22 µM
